As usually defined, the Kp is tissue or fluid exposure divided by exposure in the circulation. In general, half-life refers to the time needed for the level to fall by half in the phase considered. Low values mean rapid decline, high ones slow decline. What is called bioavailability is the share of a dose that reaches the circulation, judged against a reference dose that is usually intravenous. A higher bioavailability goes with much systemic uptake.

This is an account of results in patent US20050266060A1, “Transdermal delivery system for treatment of cognitive disorders” (priority 2004, published 2005).

The test system of data set [1] is cholinesterase. The data set is described as follows: inhibition of cholinesterase activity. In kind it is biochemical. The text has this: The phenserine compounds of the invention may be synthesized using processes known in the art. For example, U.S. Pat. Nos. 6,495,700, 5,409,948, 5,171,750, 5,378,723, and 5,998,460, and WO 03/082270 A1, all of which are hereby incorporated by reference in their entirety, describe the preparation of the phenserine compounds of the invention and enzyme inhibition assays that may be used to test compounds of the invention.

Data set [2] in a line: in vitro penetration across human epidermis in glass diffusion cells. The class given is in vitro ADME. On the procedure: Preparation of skin membranes: Human skin is obtained post mortem and may be stored at −20° C. until needed. When required the tissue is allowed to thaw at room temperature and the subcutaneous fat removed. Epidermal sheets are separated from full-thickness skin by immersing in water at 60° C. for 45 seconds and gently peeling away the epidermis. Alternatively, skin may be obtained from another source, such as a mouse or rat.
Absorption studies are performed in vitro using glass diffusion cells, having epidermal membranes mounted in Franz type diffusion cells. For example, Franz type diffusion cells having a cross-sectional area of 2.54 cm^2. The cells may be housed in a water bath to maintain a desired temperature. The upper surface of the membrane is exposed to donor solution and the under surface of the membrane is bathed by continuously stirred receptor fluid. Receptor fluid may be a phosphate buffered saline solution, or any physiological solution.
Membrane integrity may be assayed using methods well known in the art prior to conducting a diffusion assay. […]
Results from absorption experiments are typically plotted as cumulative amount absorbed against time. The steady state penetration rate, or flux, J (μg/cm^2/hr), is typically calculated by linear regression analysis from the linear regions of an absorption plot. […]

Data set [3] is described as follows: solubility of phenserine or its salt. The class given is physicochemical. Particulars: propionic acid as co-solvent with isopropyl myristate and/or oleic acid. On the procedure:
To assay solubility, between 10-20 mg of phenserine is weighed into a 1 ml volumetric flask. An initial 1 ml volume of a chosen vehicle is added to the flask and the mixture agitated, for example, ultrasonically for at least 30 minutes.

A short description of data set [4]: clinical studies of oral phenserine compound. The class given is in vivo, human. The following applies: oral dose of about 10 and/or 15 mg bid. On the procedure: Clinical studies indicate that an oral dose of a phenserine compound of about 10 and/or 15 mg bid may produce a beneficial treatment for cognitive disorders, such as AD. […] Therefore, the dosage of a phenserine compound may be reduced when administered transdermally.

Data set [5] is described as follows: chemical stability of phenserine in vehicles. In kind it is physicochemical. On the procedure: The time-course profiles for phenserine penetration across human epidermis from the formulations of the invention are conducted. […] Therefore, breakdown and degradation products, for example, by hydrolysis and subsequent oxidation, are assayed in each vehicle. The vehicles of the invention, including propionic acid and/or oleic acid, are assayed for the chemical stability of a phenserine compound.

The nature of data set [6]: brain and plasma drug levels in rats after phenserine i.v. dosing.
Description: (§1) To determine the time-dependent effects of phenserine on cholinergic function, AChE activity, brain and plasma drug levels and brain extracellular ACh concentrations were measured in rats before and after phenserine administration.
In data set [7] the target is T1, AChE (Rattus norvegicus, UniProt P37136).
T1 sequence (P37136 32-614): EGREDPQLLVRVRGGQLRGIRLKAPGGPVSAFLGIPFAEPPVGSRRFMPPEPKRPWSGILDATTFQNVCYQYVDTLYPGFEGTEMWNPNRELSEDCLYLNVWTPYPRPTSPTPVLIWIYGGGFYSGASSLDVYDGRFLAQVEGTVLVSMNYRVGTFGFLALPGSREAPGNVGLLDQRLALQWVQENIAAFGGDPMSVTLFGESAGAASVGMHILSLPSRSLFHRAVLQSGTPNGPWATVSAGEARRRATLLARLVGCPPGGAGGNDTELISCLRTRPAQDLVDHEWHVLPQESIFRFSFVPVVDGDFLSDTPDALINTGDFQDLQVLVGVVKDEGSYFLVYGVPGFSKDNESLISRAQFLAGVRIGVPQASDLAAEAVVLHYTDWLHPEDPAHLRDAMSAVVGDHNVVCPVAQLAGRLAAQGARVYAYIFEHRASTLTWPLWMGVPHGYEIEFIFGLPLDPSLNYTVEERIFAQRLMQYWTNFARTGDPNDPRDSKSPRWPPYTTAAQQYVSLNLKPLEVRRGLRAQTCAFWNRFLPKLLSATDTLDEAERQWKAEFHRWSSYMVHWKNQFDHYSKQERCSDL
Briefly: time-dependent AChE inhibition in rats after phenserine administration.
Description: as §1

In data set [8] the test system is beta amyloid precursor protein. Briefly: production of beta amyloid precursor protein.
In data set [9] the test system is brain extracellular ACh. Briefly: striatal in vivo microdialysis in conscious, freely-moving rats.
Description: as §1
A short description of data set [10]: skin irritancy and skin penetration of mixture with oleic acid. Particulars: 50:50 mixture with oleic acid. The text has this: Ethyl oleate gives a better performance still and is optimal in combination with propionic acid.

Bounds are passed on as bounds.

As for `CN1CC[C@@]2(C)c3cc(OC(=O)Nc4ccccc4)ccc3N(C)C12` (single isomer, unassigned) [phenserine], in [1], the “inhibition of cholinesterase activity” value was “long-acting inhibitor of cholinesterase”. Moreover, the transdermal flux rate result in data set [2] (25% in propionic acid/isopropyl myristate) and in data set [2] (25% in propionic acid/oleic acid) was “sufficiently high transdermal flux rates” throughout. Besides, the “effect of co-solvent on solubility” value in [3] is reported as “increase”. In [4], the “signs of cholinergic over stimulation” value was “does not cause overt signs of cholinergic over stimulation”. For the same molecule, in data set [5] (propionic acid as co-solvent with isopropyl myristate and/or oleic acid), the “effect of co-solvent on stability” value is reported as “increase”. For the same molecule, in data set [5] (vehicles of the invention, such as propionic acid and/or oleic acid), the “chemical stability in vehicle” value was “chemically stable”. The Kp in [6] (rat, brain / plasma, iv) worked out at 10. The half-life in data set [6] (rat, brain, iv) amounted to 8.5 min; in data set [6] (rat, plasma, iv) it was 12.6 min. Besides, the “time to peak drug level” value in data set [6] (rats, i.v. dosing) is recorded as at most 5 min. Besides, the bioavailability in [7] (rat, plasma, po) stood at 100%. In addition, the “half-life of AChE inhibition” value in data set [7] (rats, i.v. dosing) is over 495 min. Also, the “inhibition of AChE” value in data set [7] (rats, i.v. dosing) is given as over 70%. In [8], the “production of beta amyloid precursor protein” value is on record as “reduction in β-APP production”. The “rise in brain ACh levels” value in [9] is on record as over 3 fold.
`CNC(=O)Oc1ccc2c(c1)[C@]1(C)CCN(C)[C@@H]1N2C` [physostigmine]: in data set [10], the “penetration through the skin” value is given as “very efficient” and the skin irritancy entry is reported as “non-irritant”.
Turning to `CN1CC[C@]2(C)c3cc(OC(=O)Nc4ccccc4)ccc3N(C)C12` (stereo partly drawn) [POSIPHEN, (3aR)-1,3a,8-trimethyl-1,2,3,3a,8,8a-hexahydropyrrolo[2,3-b]indol-5-yl phenylcarbamate], in data set [1], the “inhibition of cholinesterase activity” value was “does not inhibit cholinesterase activity”. The “production of beta amyloid precursor protein” value in data set [8] is “reduces the production of beta amyloid precursor protein”.
